In US20240027453A1, “METHOD FOR DETECTION AND QUANTITATIVE MONITORING OF INFECTIONS WITH HERPESVIRUSES” (The Trustees of Princeton University, priority 2020, published 2024):
Read-outs that look alike come from different tables or passages of the source.

Test system: HCMV
Assay type: cell-based
Details: L
Protocol: In example herpesvirus PRM assay methods shown herein, cell pellets were lysed in 2% SDS, 100 mM NaCl, 0.5 mM EDTA, 50 mM Tris, pH 8.2, and 50 μg of protein was reduced and alkylated with 25 mM TCEP and 50 mM CAM respectively for 20 min at 70° C. Proteins were then precipitated via methanol chloroform precipitation (Wessel & Flugg, Anal Biochem. 138(1):141-143, 1984), resuspended in 50 mM HEPES, pH 8.2 and digested overnight with trypsin (50:1 protein:enzyme w/w ratio). Digested peptides were desalted by SDB-RPS StageTip as previously described (Lum et al., Cell Syst., 7(6):[…], 2018; Greco et al., Methods Mol Biol 1410:39-63, 2016; Federspiel & Cristea, Methods Mol Biol., 1977:115-143, 2019).
Peptides (1.0 μg on column) were analyzed by LC-MS/MS using a Dionex Ultimate 3000 UHPLC coupled online to an EASYSpray ion source and a Q Exactive HF. Peptides were separated on an EASYSpray C18 column (75 μm×25 cm) heated to 50° C. using a linear gradient of 5% B to 32% B over 60 min at a flow rate of 250 nL/min and were ionized at 1.7 kv. Mobile phase A consisted of 0.1% FA in H2O and mobile phase B consisted of 0.1% FA, 2.9% H2O in ACN.
The PRM method was controlled by a peptide inclusion list with retention time windows of 6 min for selected precursor ions.
The PRM assay was developed and analyzed using the open-source software Skyline (Maclean et al., Bioinformatics 26(7):966-968, 2010). Summed area under the curve of 3-4 transitions per peptide was used for quantitation. Targeted peptides were normalized to host protein loading control peptides. Peptide values for each sample were scaled to the average of each peptide across all runs. The average of multiple peptides was used as the inferred value for the protein measurement when more than one peptide was quantified (Federspiel et al., PLoS Biol. 17(9):e3000437. Doi: 10.1371/journal.pbio.3000437). PRM quantitation data were graphed using the Python Seaborn and Matplotlib libraries.
MRC5 primary human fibroblasts (HFs) (ATCC CCL-171) were used as the model system for HSV-1 and HCMV infections and were cultured in complete growth medium (DMEM supplemented with 10% fetal bovine serum and 1% penicillin-streptomycin antibiotics) at 37° C. and 5% CO2. iSLK.219 cells harboring latent KSHV (a gift from Dr. Britt Glaunsinger, University of California, Berkeley) were grown in complete growth medium supplemented with 500 μg/ml hygromycin (ThermoFisher Scientific, 10687010) at 37° C. and 5% CO2. All cells were used for experiments within a maximum of 10 passages.
Wild type HSV-1 strain 17+ (a gift from Beate Sodeik, Hannover Medical School, Hannover, Germany) was propagated as previously described (Diner et al., 2015). Briefly, PO stocks were generated by electroporating pBAC-HSV-1 into U-2 OS cells. […] In a similar manner, wild type HCMV strain AD169 was produced from BAC electroporation into HFs and working stocks were propagated by infecting HFs at a low level. In both cases, cell-associated virus was released by sonication, combined with supernatant virus, then concentrated by ultracentrifugation (20,000 rpm, 2 hours, 4° C. with SW28 swinging bucket rotor [Beckman Coulter]) over a 10% ficoll (HSV-1) or 20% sorbitol (HCMV) cushion. Virus stock titers were determined by plaque assay for HSV-1 or tissue culture infectious dose (TCID50) for HCMV and infections were performed at a multiplicity of infection (MOI) of 3.
12 hours prior to virus infection or reactivation, cells were treated with either the small molecule drug or DMSO/PBS control at an equivalent volume. […] For infection cycles lasting longer than 24 hours, small molecule drugs were re-added to the cell culture medium every 24 hours. Upon collection, cells were rinsed with PBS, scraped into a microcentrifuge tube, pelleted by centrifugation, and rinsed again with PBS.

For `Nc1ccn(C[C@@H](CO)OCP(=O)(O)O)c(=O)n1` [CDV, cidofovir], the “UL82 (P06726) protein, numerical value of heatmap FIG. 6C” value (timepoint 48) was 0.2148, the “UL88 (P16731) protein, numerical value of heatmap FIG. 6C” value (timepoint 48) was 0.05021 and the “UL94 (P16800) protein, numerical value of heatmap FIG. 6C” value (timepoint 48) was 0.09258. The “UL99 (P13200) protein, numerical value of heatmap FIG. 6C” value (timepoint 48) was 0.06513, the “UL103 (P16734) protein, numerical value of heatmap FIG. 6C” value (timepoint 48) was 0.1954 and the “UL117 (P16770) protein, numerical value of heatmap FIG. 6C” value (timepoint 48) was 0.3875. The “gH (P12824) protein, numerical value of heatmap FIG. 6C” value (timepoint 48) was 0.1304, the “gL (P16832) protein, numerical value of heatmap FIG. 6C” value (timepoint 48) was 0.06908 and the “gM (P16733) protein, numerical value of heatmap FIG. 6C” value (timepoint 48) was 0.03119. The “gN (P16795) protein, numerical value of heatmap FIG. 6C” value (timepoint 48) was 0.07597, the “sp|P16809|IR11_HCMVA (P16809) protein, numerical value of heatmap FIG. 6C” value (timepoint 48) was 0.502 and the “CVC1 (P16799) protein, numerical value of heatmap FIG. 6C” value (timepoint 72) was 0.4079. The “GO (P16750) protein, numerical value of heatmap FIG. 6C” value (timepoint 72) was 0.601, the “MCP (P16729) protein, numerical value of heatmap FIG. 6C” value (timepoint 72) was 0.4006 and the “SCP (Q7M6N6) protein, numerical value of heatmap FIG. 6C” value (timepoint 72) was 0.3733. The “TRM2 (P16792) protein, numerical value of heatmap FIG. 6C” value (timepoint 72) was 0.5505, the “UL22A (P16845) protein, numerical value of heatmap FIG. 6C” value (timepoint 72) was 0.4199 and the “UL25 (P16761) protein, numerical value of heatmap FIG. 6C” value (timepoint 72) was 0.4606. The “UL29 (P16764) protein, numerical value of heatmap FIG. 6C” value (timepoint 72) was 0.8549, the “UL30 (P16765) protein, numerical value of heatmap FIG. 6C” value (timepoint 72) was 0.4115 and the “UL31 (P16848) protein, numerical value of heatmap FIG. 6C” value (timepoint 72) was 0.4223. For the same compound, the “UL43 (P16781) protein, numerical value of heatmap FIG. 6C” value (timepoint 72) was 0.2402, the “UL52 (P16793) protein, numerical value of heatmap FIG. 6C” value (timepoint 72) was 0.4658 and the “UL76 (P16725) protein, numerical value of heatmap FIG. 6C” value (timepoint 72) was 0.3035. The “UL79 (P16752) protein, numerical value of heatmap FIG. 6C” value (timepoint 72) was 0.4713, the “UL80 (P16753) protein, numerical value of heatmap FIG. 6C” value (timepoint 72) was 0.6581 and the “UL82 (P06726) protein, numerical value of heatmap FIG. 6C” value (timepoint 72) was 0.4947. The “UL88 (P16731) protein, numerical value of heatmap FIG. 6C” value (timepoint 72) was 0.4289, the “UL94 (P16800) protein, numerical value of heatmap FIG. 6C” value (timepoint 72) was 0.5474 and the “UL99 (P13200) protein, numerical value of heatmap FIG. 6C” value (timepoint 72) was 0.455. For the same compound, the “UL103 (P16734) protein, numerical value of heatmap FIG. 6C” value (timepoint 72) was 0.5642, the “UL117 (P16770) protein, numerical value of heatmap FIG. 6C” value (timepoint 72) was 0.5867 and the “gH (P12824) protein, numerical value of heatmap FIG. 6C” value (timepoint 72) was 0.7542. For the same compound, the “gL (P16832) protein, numerical value of heatmap FIG. 6C” value (timepoint 72) was 0.5073, the “gM (P16733) protein, numerical value of heatmap FIG. 6C” value (timepoint 72) was 0.477 and the “gN (P16795) protein, numerical value of heatmap FIG. 6C” value (timepoint 72) was 0.5141. The “sp|P16809|IR11_HCMVA (P16809) protein, numerical value of heatmap FIG. 6C” value (timepoint 72) was 0.869, the “CVC1 (P16799) protein, numerical value of heatmap FIG. 6C” value (timepoint 96) was 0.6 and the “GO (P16750) protein, numerical value of heatmap FIG. 6C” value (timepoint 96) was 0.5678. The “MCP (P16729) protein, numerical value of heatmap FIG. 6C” value (timepoint 96) was 0.8755, the “SCP (Q7M6N6) protein, numerical value of heatmap FIG. 6C” value (timepoint 96) was 0.678 and the “TRM2 (P16792) protein, numerical value of heatmap FIG. 6C” value (timepoint 96) was 0.8343. For the same compound, the “UL22A (P16845) protein, numerical value of heatmap FIG. 6C” value (timepoint 96) was 0.5842, the “UL25 (P16761) protein, numerical value of heatmap FIG. 6C” value (timepoint 96) was 0.8443 and the “UL29 (P16764) protein, numerical value of heatmap FIG. 6C” value (timepoint 96) was 0.8921. The “UL30 (P16765) protein, numerical value of heatmap FIG. 6C” value (timepoint 96) was 0.5445, the “UL31 (P16848) protein, numerical value of heatmap FIG. 6C” value (timepoint 96) was 0.6245 and the “UL43 (P16781) protein, numerical value of heatmap FIG. 6C” value (timepoint 96) was 0.7777. For the same compound, the “UL52 (P16793) protein, numerical value of heatmap FIG. 6C” value (timepoint 96) was 0.8766, the “UL76 (P16725) protein, numerical value of heatmap FIG. 6C” value (timepoint 96) was 0.421 and the “UL79 (P16752) protein, numerical value of heatmap FIG. 6C” value (timepoint 96) was 0.5586.
